{
  "source": "patent US6492407B2",
  "about": "“Pharmaceutical compositions containing triazolones and methods of treating neurodegenerative disease using triazolones” (Boehringer Imgelheim Pharma KG, priority 1998, dated 2002)",
  "key": {"AMPA receptor": {"system": "AMPA receptor", "experiment": "Inhibition of the cainate-induced signal at the AMPA receptor, electrophysiology on neuronal cells (patch-clamp method)", "format": "cell-based", "details": "test concentration of 100 μM", "method": "The testing was carried out at a test concentration of 100 μM."}, "[1]": {"molecular_target": "Na+ channel site 2 binding site", "experiment": "Affinity to the \"Na+ channel site 2\" binding site (method of G. B. Brown)", "details": "testing typically at a test concentration of 10 μM"}},
  "note": "Counter-ions that a name gives are not always drawn.",
  "data": [
    {"smiles": "Cc1ccccc1-n1nc(-c2ccccc2)n(CCN(C)C)c1=O", "note": "(as salt: HCl) [Example 27, 4-(2-N,N-dimethyl-aminoethyl)-2-(2-methyl-phenyl)-5-phenyl-3H-1,2,4-triazol-3-one]", "values": [
      {"measurement": "melting point", "result": "204 to 207", "unit": "°C"}
    ]},
    {"smiles": "Cc1cccc(-n2[nH]c(-c3ccccc3)nc2=O)c1", "note": "(as salt: HCl) [Example 46, 2-(3-methyl-phenyl)-5-phenyl-3H-1,2,4-triazol-3-one]", "values": [
      {"measurement": "melting point", "result": "207 to 208", "unit": "°C"}
    ]},
    {"smiles": "CN(C)CCn1c(-c2ccccc2)nn(-c2cccc(F)c2)c1=O", "note": "(as salt: HCl) [Example 49, 2-(3-fluorophenyl)-4-(2-N,N-dimethyl-aminoethyl)-5-phenyl-3H-1,2,4-triazol-3-one]", "values": [
      {"measurement": "melting point", "result": "201 to 203", "unit": "°C"}
    ]},
    {"smiles": "Cc1cccc(-n2nc(-c3ccccc3)n(CCN(C)C)c2=O)c1", "note": "(as salt: HCl) [Example 53, 4-(2-N,N-dimethyl-amino-ethyl)-2-(3-methyl-phenyl)-5-phenyl-3H-1,2,4-triazol-3-one]", "values": [
      {"measurement": "melting point", "result": "204 to 206", "unit": "°C"}
    ]},
    {"smiles": "Cc1ccccc1-n1[nH]c(-c2ccccc2)nc1=O", "note": "[Example 1, 2-(2-methyl-phenyl)-5-phenyl-3H-1,2,4-triazol-3-one]", "values": [
      {"measurement": "AMPA Inh. [%] (inhibition of the cainate-induced signal at the AMPA receptor)", "setting": "AMPA receptor", "result": 58, "unit": "%"},
      {"measurement": "melting point", "result": "208 to 211", "unit": "°C"}
    ]},
    {"smiles": "COc1cccc(-n2nc(-c3ccccc3)n(C)c2=O)c1", "note": "[Example 5, 2-(3-methoxy-phenyl)-4-methyl-5-phenyl-3H-1,2,4-triazol-3-one]", "values": [
      {"measurement": "AMPA Inh. [%] (inhibition of the cainate-induced signal at the AMPA receptor)", "setting": "AMPA receptor", "result": 58, "unit": "%"},
      {"measurement": "melting point", "result": "81 to 83", "unit": "°C"}
    ]},
    {"smiles": "Cn1c(-c2ccccc2)nn(-c2ccccc2Br)c1=O", "note": "[Example 8, 2-(2-bromo-phenyl)-4-methyl-5-phenyl-3H-1,2,4-triazol-3-one]", "values": [
      {"measurement": "AMPA Inh. [%] (inhibition of the cainate-induced signal at the AMPA receptor)", "setting": "AMPA receptor", "result": 87, "unit": "%"},
      {"measurement": "melting point", "result": "80 to 82", "unit": "°C"}
    ]},
    {"smiles": "COc1ccc(-c2nn(-c3ccccc3)c(=O)n2C)cc1", "note": "[Example 22, 5-(4-methoxy-phenyl)-4-methyl-2-phenyl-3H-1,2,4-triazol-3-one]", "values": [
      {"measurement": "AMPA Inh. [%] (inhibition of the cainate-induced signal at the AMPA receptor)", "setting": "AMPA receptor", "result": 50, "unit": "%"},
      {"measurement": "melting point", "result": 118, "unit": "°C"}
    ]},
    {"smiles": "COc1ccccc1-c1nn(-c2ccccc2)c(=O)n1C", "note": "[Example 25, 5-(2-methoxy-phenyl)-4-methyl-2-phenyl-3H-1,2,4-triazol-3-one]", "values": [
      {"measurement": "AMPA Inh. [%] (inhibition of the cainate-induced signal at the AMPA receptor)", "setting": "AMPA receptor", "result": 72, "unit": "%"},
      {"measurement": "melting point", "result": 117, "unit": "°C"}
    ]},
    {"smiles": "Cc1ccccc1-n1nc(-c2ccccc2)n(CCN(C)C)c1=O", "note": "[Example 27, 4-(2-N,N-dimethyl-aminoethyl)-2-(2-methyl-phenyl)-5-phenyl-3H-1,2,4-triazol-3-one]", "values": [
      {"measurement": "AMPA Inh. [%] (inhibition of the cainate-induced signal at the AMPA receptor)", "setting": "AMPA receptor", "result": 64, "unit": "%"},
      {"measurement": "Ki", "setting": "[1]", "result": 5.41, "unit": "µM"}
    ]},
    {"smiles": "COc1ccccc1-n1[nH]c(-c2ccccc2)nc1=O", "note": "[Example 32, 2-(2-methoxy-phenyl)-5-phenyl-3H-1,2,4-triazol-3-one]", "values": [
      {"measurement": "AMPA Inh. [%] (inhibition of the cainate-induced signal at the AMPA receptor)", "setting": "AMPA receptor", "result": 73, "unit": "%"},
      {"measurement": "melting point", "result": "275 to 277", "unit": "°C"}
    ]},
    {"smiles": "O=c1nc(-c2ccccc2)[nH]n1-c1ccccc1Cl", "note": "[Example 33, 2-(2-chloro-phenyl)-5-phenyl-3H-1,2,4-triazol-3-one]", "values": [
      {"measurement": "AMPA Inh. [%] (inhibition of the cainate-induced signal at the AMPA receptor)", "setting": "AMPA receptor", "result": 97, "unit": "%"},
      {"measurement": "melting point", "result": 257, "unit": "°C"}
    ]},
    {"smiles": "CN(C)CCn1c(-c2ccccc2)nn(-c2cccc(Cl)c2)c1=O", "note": "[Example 35, 2-(3-chloro-phenyl)-4-(2-N,N-dimethylamino-ethyl)-5-phenyl-3H-1,2,4-triazol-3-one]", "values": [
      {"measurement": "Ki", "setting": "[1]", "result": 2.08, "unit": "µM"}
    ]},
    {"smiles": "O=c1nc(-c2ccccc2)[nH]n1-c1ccccc1F", "note": "[Example 37, 2-(2-fluoro-phenyl)-5-phenyl-3H-1,2,4-triazol-3-one]", "values": [
      {"measurement": "AMPA Inh. [%] (inhibition of the cainate-induced signal at the AMPA receptor)", "setting": "AMPA receptor", "result": 86, "unit": "%"},
      {"measurement": "melting point", "result": "238 to 240", "unit": "°C"}
    ]},
    {"smiles": "Cn1c(-c2ccccc2)nn(-c2cccc(F)c2)c1=O", "note": "[Example 42, 2-(3-fluoro-phenyl)-4-methyl-5-phenyl-3H-1,2,4-triazol-3-one]", "values": [
      {"measurement": "AMPA Inh. [%] (inhibition of the cainate-induced signal at the AMPA receptor)", "setting": "AMPA receptor", "result": 96, "unit": "%"},
      {"measurement": "melting point", "result": 81, "unit": "°C"}
    ]},
    {"smiles": "Cn1c(-c2ccccc2)nn(-c2ccccc2F)c1=O", "note": "[Example 44, 2-(2-fluoro-phenyl)-4-methyl-5-phenyl-3H-1,2,4-triazol-3-one]", "values": [
      {"measurement": "AMPA Inh. [%] (inhibition of the cainate-induced signal at the AMPA receptor)", "setting": "AMPA receptor", "result": 76, "unit": "%"},
      {"measurement": "melting point", "result": "65 to 66", "unit": "°C"}
    ]},
    {"smiles": "Cc1cccc(-n2[nH]c(-c3ccccc3)nc2=O)c1", "note": "[Example 46, 2-(3-methyl-phenyl)-5-phenyl-3H-1,2,4-triazol-3-one]", "values": [
      {"measurement": "AMPA Inh. [%] (inhibition of the cainate-induced signal at the AMPA receptor)", "setting": "AMPA receptor", "result": 54, "unit": "%"}
    ]},
    {"smiles": "CCc1ccccc1-n1[nH]c(-c2ccccc2)nc1=O", "note": "[Example 48, 2-(2-ethyl-phenyl)-5-phenyl-3H-1,2,4-triazol-3-one]", "values": [
      {"measurement": "AMPA Inh. [%] (inhibition of the cainate-induced signal at the AMPA receptor)", "setting": "AMPA receptor", "result": 63, "unit": "%"},
      {"measurement": "melting point", "result": "209 to 210", "unit": "°C"}
    ]},
    {"smiles": "CN(C)CCn1c(-c2ccccc2)nn(-c2cccc(F)c2)c1=O", "note": "[Example 49, 2-(3-fluorophenyl)-4-(2-N,N-dimethyl-aminoethyl)-5-phenyl-3H-1,2,4-triazol-3-one]", "values": [
      {"measurement": "Ki", "setting": "[1]", "result": 6.58, "unit": "µM"}
    ]},
    {"smiles": "Cc1cccc(-n2nc(-c3ccccc3)n(C)c2=O)c1", "note": "[Example 50, 4-methyl-2-(3-methyl-phenyl)-5-phenyl-3H-1,2,4-triazol-3-one]", "values": [
      {"measurement": "AMPA Inh. [%] (inhibition of the cainate-induced signal at the AMPA receptor)", "setting": "AMPA receptor", "result": 71, "unit": "%"},
      {"measurement": "melting point", "result": "91 to 92", "unit": "°C"}
    ]},
    {"smiles": "Cc1cccc(-n2nc(-c3ccccc3)n(CCN(C)C)c2=O)c1", "note": "[Example 53, 4-(2-N,N-dimethyl-amino-ethyl)-2-(3-methyl-phenyl)-5-phenyl-3H-1,2,4-triazol-3-one]", "values": [
      {"measurement": "Ki", "setting": "[1]", "result": 5.78, "unit": "µM"}
    ]},
    {"smiles": "Cn1c(-c2ccccc2)nn(-c2ccccc2Cl)c1=O", "note": "[Example 55, 2-(2-chloro-phenyl)-4-methyl-5-phenyl-3H-1,2,4-triazol-3-one]", "values": [
      {"measurement": "AMPA Inh. [%] (inhibition of the cainate-induced signal at the AMPA receptor)", "setting": "AMPA receptor", "result": 80, "unit": "%"},
      {"measurement": "melting point", "result": "94 to 96", "unit": "°C"}
    ]},
    {"smiles": "O=c1nc(-c2ccccc2)[nH]n1-c1ccccc1Br", "note": "[Example 56, 2-(2-bromo-phenyl)-5-phenyl-3H-1,2,4-triazol-3-one]", "values": [
      {"measurement": "AMPA Inh. [%] (inhibition of the cainate-induced signal at the AMPA receptor)", "setting": "AMPA receptor", "result": 96, "unit": "%"},
      {"measurement": "melting point", "result": "246 to 264", "unit": "°C"}
    ]}
  ]
}
